Assay results from paper PMC12844237, “A Novel Quinolone JH62 (E-2-(Tridec-4-en-1-yl)-quinolin-4(1H)-one) from Pseudomonas aeruginosa Exhibits Potent Anticancer Activity” (Microorganisms, 2025).

How the values were obtained:
A549 cells [1] = assay: DNA fragmentation analysis (genomic DNA electrophoresis); type: cell-based, human; details: A549, 24 h; JH62 5–100 µM, DOX 1 and 5 μM
Description: Genomic DNA fragmentation was analyzed by agarose gel electrophoresis using previously described methods. A549 cells were seeded in 6 cm tissue culture dishes and cultured overnight. Before treatment with JH62 or DOX, the cells were cultured in DMEM lacking FBS for 16 h. After treatment, the cells were then washed three times with PBS and genomic DNA was extracted using a MasterPure™ DNA Purification Kit (Lucigen Corporation, Middleton, WI, USA). The DNA pellet was airdried and resuspended in Tris-HCl (pH 8.0, 10 mM). DNA samples (2.5 μg) were separated by 1% agarose gel electrophoresis in TAE buffer containing ethidium bromide.

[2] = system: MCF7: human breast cancer cell lines; assay: WST-1 cell viability, MCF7; type: cell-based; details: MCF7 (breast) cancer cell line
Description: Different cells were utilized as follows: MEF: murine embryonic fibroblast (RRID: CVCL_L690); AML12: mouse liver cell lines (RRID: CVCL_0140); WI-38: human lung fibroblast cell lines (RRID: CVCL_0579); THLE-2: human liver epithelial cell lines (RRID: CVCL_3803); A549: human lung cancer cell lines (RRID: CVCL_0023); HEPG2: human liver cancer cell lines (RRID: CVCL_0027); HEP3B: human hepatoma cell lines (RRID: CVCL_0326); BxPC3: human pancreatic cancer cell lines (RRID: CVCL_0186); U87: human primary glioblastoma cell lines (RRID: CVCL_0022); DU145: human prostate cancer cell lines (RRID: CVCL_0105); MCF7: human breast cancer cell lines (RRID: CVCL_0031); HeLa: human cervical cancer cell lines (RRID: CVCL_0030); HCT116: human colon cancer cell lines (RRID: CVCL_0291). Cells were maintained in Dulbecco’s modified Eagle’s medium (DMEM, Gibco) supplemented with L-glutamine (Lonza) (2 mM), 10% fetal bovine serum (FBS, Hyclone), 1 × non-essential amino acids, and sodium pyruvate (1 mM). THLE-2 cells were maintained in THLE-2 Cell Complete Medium (Zhong Qiao Xin Zhou, Shanghai, China). Cells were incubated at 37 °C in a humidified incubator with 5% CO2. […]
Cell viability was assessed using the WST-1 assay, based on a previously reported method with slight modifications. […] Absorbance at OD450 was measured using a microplate reader (Synergy H1; BioTek Instruments, Winooski, VT, USA).

A549 cells [3] = assay: Mitochondria JC-1 staining (mitochondrial membrane potential); type: cell-based, human; details: A549, 25 μM, red fluorescence decreasing within 2–3 h, lowest by 4 h
Description: Mitochondrial membrane potential and mitochondria localization were assessed by JC-1 and MitoTracker staining based on previously published methods. A549 cells were cultured at 37 °C and 5% CO2 in Dulbecco’s modified Eagle’s medium (DMEM), supplemented with 10% heat-inactivated FBS (Thermo Fisher Scientific, Waltham, MA, USA) and L-Glutamine (Thermo Fisher Scientific, Waltham, MA, USA) (2 mM). An aliquot of 1 mL of JH62 (25 μM) solution was added to the cell cultures. […] Cells were washed with dilution buffer, and photos were taken using a microscope. For MitoTracker staining, cells grown on 12 mm diameter round glass coverslips in 24-well plates were incubated with MitoTracker Red diluted 1:2000 or 1:20,000 from a stock solution (1 mM) in culture medium for 45 min at 37 °C. Cells were then washed with PBS and fixed with ice-cold 3.2% paraformaldehyde in PBS for 20 min at room temperature. After washing, coverslips were mounted on glass slides using an appropriate mounting medium. […]
In cancer cells, mitochondria serve as central organelles for energy production and survival, critically influencing cell viability, immune evasion, tumor progression, and therapy resistance. […] We used the potential-sensitive fluorescent probe JC-1, which emits green fluorescence as a monomer at low concentrations and forms red-fluorescent aggregates in mitochondria with intact ΔΨm.

SMILES: CCCCCCCC/C=C/CCCc1cc(=O)c2ccccc2[nH]1 [JH62, E-2-(tridec-4-en-1-yl)-quinolin-4(1H)-one]
- genomic DNA integrity (electrophoresis) (A549 cells [1]): genomic DNA integrity remained unchanged
- IC50 [2]: 13.9 ± 1.3 µM
- mitochondrial membrane potential (JC-1 red fluorescence) (A549 cells [3]): disrupted the mitochondrial membrane potential
